Experimental data taken from paper PMC9120013, “Ribosome inhibition by C9ORF72-ALS/FTD-associated poly-PR and poly-GR proteins revealed by cryo-EM” (Nature Communications, 2022).
Read-outs that look alike come from different tables or passages of the source. Ends that are not written are not given here.

Key:
[1] = biological target: translation of nanoluciferase mRNA in rabbit reticulocyte lysates; experiment: Nanoluciferase mRNA translation in rabbit reticulocyte lysate, inhibitor preincubated 5 min before mRNA; type: biochemical; details: read-out: IC50 of translation inhibition
Excerpt: Rabbit reticulocyte lysates (RRL, Promega) were used to investigate the inhibition of translation by DPR proteins. We independently monitored translation of two mRNAs encoding non-homologous proteins of different lengths: nanoluciferase[71] and firefly luciferase. To measure the IC50s of the translational inhibitors cycloheximide (Akros Organics), harringtonine (AbCam), GDPCP (Jena Biosciences), PR20 and GR20, we monitored the translation of nanoluciferase mRNA in nuclease-treated RRL (Promega). […] Next, 10 ng/μl (final concentration) 6xhis-Nanoluciferase mRNA flanked with the 5'- and 3'-UTR from rabbit beta-globin[48] was added and the luminescence reactions were continuously measured by an Infinite m1000 pro microplate reader (Tecan) for 15 min at 30 °C. The 1st derivative of the luminescence reactions was determined in Prism 8 (GraphPad Software, LLC) and the maximum was identified and the mean of three maximums from independent experiments for each inhibitor was taken as the rate. The rates were plotted versus inhibitors concentration, and the plots were fitted in Prism 8 (GraphPad Software, LLC) to a 3-parameter inhibition model (Y = baseline + (max-baseline)/(1 + X/IC50)) to obtain the IC50 values where the baseline was constrained to 0. This procedure was modified to separate translation initiation from translation elongation by changing the time of addition of the inhibitors to ~300 s after mRNA addition when RLUs had reached a value of ~50,000. Here, the maximum of the first derivative was taken in the 2nd or later measurement taken after inhibitor addition.
The following additional controls indicate that DPR-induced changes in fluorescence were caused by translation inhibition.

[2] = tested on: ribosomes on endogenous beta-globin mRNA in RRL; experiment: Toeprinting of 80S and 4-5-mer polysome fractions on beta-globin mRNA; type: biochemical, rabbit; details: for Ratio (START to CDS) / Normalized ratio START/ORF: 80S fraction, primer A, Fig. 2f independent repeat; for Normalized ratio START/ORF: no inhibitor = 1; for normalized ratio START to CDS, MEAN: 4-5-mer, primer B, mean of ten 20 bp windows
Description: Toeprinting analyses were carried out similarly to those in refs. [51],[74], using 80S and polysome (4–5-some) fractions collected from polysome profiles as described in “Polysome Profiles” except that reactions were doubled in size (200 μL), performed at 37 °C, and were stopped with ice-cold 1xAMV Buffer (50 mM Tris-HCl pH 8.3, 50 mM KCl, 5 mM MgCl2) with 200 μg/ml cycloheximide before being separated on at 10–35% sucrose gradient in 1xAMV buffer with 0.5 mM spermidine and 1 mM DTT. 600 μl of each fraction (80S or 4–5-mer) was supplemented with 10 mM DTT. Then 10 U of AMV reverse transcriptase (Promega), 120 nmol dNTPs, and 120 pmol of a 5'[6-carboxyfluorescein (FAM)]-labeled primer (IDT-DNA) were added. Two primers specific to the endogenous beta-globin mRNA in RRL were used in separate reactions: 5′-(FAM)-GGACTCGAAGAACCTCTG (as in ref. [74]) annealed 136 nucleotides downstream of the AUG or 5′-(FAM)-[…] annealed to the end of the 3'-UTR. Primers were extended at 37 °C for 30 min, and then the reaction were extracted in 1:1 phenol:chloroform, supplemented with 1/10 volume of 3 M sodium acetate pH 5.2, and precipitated with 2.5 volumes of 100% ethanol. Pellets were resuspended in 10 μl of deionized formamide (Applied Biosystems) with 1/20 volume of a 35-500 nucleotide orange-dye labeled DNA size standard (MCLab) and loaded onto a 96-well plate. The samples were sent for fragment analysis by capillary electrophoresis to the UMass Chan Medical School Molecular Biology Core Laboratory using an ABI3730XL DNA Fragment Analyzer with capillaries loaded with POP-7 polymer and with an injection voltage of 12.5 kV. Data collection was performed with GeneMapper software (ABI). Data were exported as.fsa files and were analyzed (aligning to ladder and background correction) in GeneMarker 3.0.1 software (SoftGenetics) running in demo mode. Screen captures of traces were taken and traces were integrated using the “Quantification” feature and manually adjusting sliders to include the desired nucleotide range.

[3] = tested on: ribosomes on endogenous globin mRNAs in RRL; experiment: Polysome profiling of RRL translating endogenous mRNA; type: biochemical, rabbit; details: 4 μM PR20, 4 μM GR20, 1 mM GDPCP; 5 min
Description: Polysome profiles were obtained using RRL untreated with nuclease, so that it contained endogenous mRNA. 100 μl reactions containing 50% RRL (Green Hectare) 30 μM hemin (Sigma), 75 mM KCl, 0.5 mM MgCl2, 1 mM ATP, 0.2 mM GTP, 2.1 mg/ml creatine phosphate, 30 μM of L-amino acid mix, 15 mg/ml yeast tRNA, 6 mM BME and, when appropriate, translation inhibitors (4 μM PR20, 4 μM GR20, cycloheximide, 40 μM harringtonine, or 1 mM GDPCP with 1 mM MgCl2) were assembled on ice. To start translation, the reactions were warmed in a heat block at either 30 °C or 37 °C as noted. After 5 min, reactions were terminated by addition of 100 μl of ice-cold Stop Buffer (50 mM Hepes-KOH pH 7.4, 150 mM KOAc, 10 mM Mg(OAc)2, and 200 μg/ml cycloheximide). The stopped reactions were applied to 10–50% sucrose gradients in Gradient Buffer (50 mM Hepes-KOH pH 7.4, 150 mM KOAc, 10 mM Mg(OAc)2, 2 mM DTT, and 100 μg/ml cycloheximide) and spun in an SW-41 rotor (Beckman Coulter) at 197,568xg (avg) for 2 h at 4 °C. Gradients were pumped on a Gradient Station (BioComp Instruments) at a pump rate of 0.29 mm/min and the absorbance at 254 nm was measured by an Econo UV monitor (Biorad) zeroed with 10% sucrose-gradient buffer. The traces were output as CSV files and imported into GraphPad Prism, where the 80S peaks were aligned. Controls were highly reproducible day-to-day. Each experimental condition is shown compared to concurrent, uninhibited control.

[4] = 50% RRL, 5-min preincubation at 30 °C before nanoluciferase mRNA, maximal rate vs concentration, n = 3, mean ± SEM

Compound | IC50 ([1]; 33% RRL) [nM] | IC50 [1, 4] [nM] | site of ribosome accumulation, toe-printing of polysome fractions [2] | Ratio (START to CDS) [2] | Normalized ratio START/ORF [2] | normalized ratio START to CDS, MEAN ([2]; Fig. 2g) | normalized ratio START to CDS, MEAN ([2]; Fig. 2h independent repeat) | polysome profile, half-mer peaks [3]
PRPRPRPRPRPRPRPRPRPRPRPRPRPRPRPRPRPRPRPR [PR20] | 325 | 840 | accumulate at the start codon | 5.983 | 2.218 | 2.067 | 3.436 | appearance of half-mer peaks
N=C(N)NCCC[C@H](NC(=O)CNC(=O)[C@H](CCCNC(=N)N)NC(=O)CNC(=O)[C@H](CCCNC(=N)N)NC(=O)CNC(=O)[C@H](CCCNC(=N)N)NC(=O)CNC(=O)[C@H](CCCNC(=N)N)NC(=O)CNC(=O)[C@H](CCCNC(=N)N)NC(=O)CNC(=O)[C@H](CCCNC(=N)N)NC(=O)CNC(=O)[C@H](CCCNC(=N)N)NC(=O)CNC(=O)[C@H](CCCNC(=N)N)NC(=O)CNC(=O)[C@H](CCCNC(=N)N)NC(=O)CNC(=O)[C@H](CCCNC(=N)N)NC(=O)CNC(=O)[C@H](CCCNC(=N)N)NC(=O)CNC(=O)[C@H](CCCNC(=N)N)NC(=O)CNC(=O)[C@H](CCCNC(=N)N)NC(=O)CNC(=O)[C@H](CCCNC(=N)N)NC(=O)CNC(=O)[C@H](CCCNC(=N)N)NC(=O)CNC(=O)[C@H](CCCNC(=N)N)NC(=O)CNC(=O)[C@H](CCCNC(=N)N)NC(=O)CNC(=O)[C@H](CCCNC(=N)N)NC(=O)CNC(=O)[C@H](CCCNC(=N)N)NC(=O)CN)C(=O)O [GR20] | 425 | 640 | accumulate within the open reading frame | 1.504 | 0.5576 | 0.4196 | 0.5964 | appearance of half-mer peaks
